Where two headings read alike, the source gives them in different places.
Experiments:
CD34+ cells [1] = experiment: NK cell expansion from CD34+ cells cultured with CRL compounds (three-stage NK culture, Day 35); assay type: cell-based, human; details: 10 μM; for expansion compared to SR1 / cell expansion, rank among all the compounds: Day 35; for expansion compared to SR1: SR1 10 μM positive control; for expansion, differentiation and cytotoxicity profiles compared to SR1: PNK-007 culture
Text: (§1) UCB CD34+ cells were cultivated in presence of cytokines including thrombopoietin, SCF, Flt3 ligand, IL-7, IL-15 and IL-2 for 35 days to produce three-stage NK cells, as described in Example 1. Multi-color flow cytometry was used to determine the phenotypic characteristics of three-stage NK cells.
(§2) For biological testing, the compounds were provided to culture to evaluate their effects on NK cell expansion and differentiation. Specifically, donors of CD34+ cells (StemCell Technology) were thawed and expanded in vitro following NK culture protocol. During the first 14 days of the culture, each CRL compounds was dissolved in DMSO and added to the culture at 10 μM concentration. SR1 (at 10 μM) served as a positive control compound, while DMSO alone without any compound served as a negative control. At the end of the culture on Day 35, cell expansion, natural killer (NK) cell differentiation and cytotoxicity of the cells against K562 tumor cell line were characterized. Due to the large number of the compounds, the testing was performed in two experiments, CRL1-11 and CRL 12-22. The same donors were used for each experiment. Positive and negative controls were also included in both experiments.

CD34+ cells [2] = experiment: NK cell differentiation of compound cultured cells (flow cytometry); assay type: cell-based, human; details: compared to SR1
Text: as §1, §2

K562 tumor cells = experiment: Cytotoxicity assay of compound cultured cells against K562 tumor cells; assay type: cell-based; details: 10:1 effector to target ratio; both donors
Description: as §2
Cytotoxicity assay was run using compound cultured cells against K562 tumor cells at 10:1 effector to target ratio (FIG. 5) to evaluate cell functions.

CD34 cells = experiment: CD34 cell expansion at Day 14 of the culture; assay type: cell-based, human; details: 10 μM
Description: as §2

NDMM patients = details: cited from earlier work

CC(C)c1csc2c(NCCc3c[nH]c4ccccc34)nc(-c3cncc(C#N)c3)nc12 [CRL17, 5-(4-((2-(1H-indol-3-yl)ethyl)amino)-7-isopropylthieno[3,2-d]pyrimidin-2-yl)nicotinonitrile]
expansion compared to SR1 (CD34+ cells [1]): slightly less expansion compared to SR1 | CD56+/CD11a+ subpopulation (CD34+ cells [2]): increased CD56+/CD11a+ subpopulation | killing activities compared to cells cultured with SR1 (K562 tumor cells): increased killing activities of the cells

CC(C)c1csc2c(NCCc3c[nH]c4ccccc34)nc(-c3cncc(F)c3)nc12 [CRL18, N-(2-(1H-indol-3-yl)ethyl)-2-(5-fluoropyridin-3-yl)-7-isopropylthieno[3,2-d]pyrimidin-4-amine]
expansion compared to SR1 (CD34+ cells [1]): slightly less expansion compared to SR1 | CD56+/CD11a+ subpopulation (CD34+ cells [2]): increased CD56+/CD11a+ subpopulation | killing activities compared to cells cultured with SR1 (K562 tumor cells): increased killing activities of the cells

Fc1cncc(-c2nc(NCCc3c[nH]c4ccccc34)c3occc3n2)c1 [CRL19, N-(2-(1H-indol-3-yl)ethyl)-2-(5-fluoropyridin-3-yl)furo[3,2-d]pyrimidin-4-amine]
cell expansion, rank among all the compounds (CD34+ cells [1]): supported cell expansion the best | expansion, differentiation and cytotoxicity profiles compared to SR1 (CD34+ cells [1]): very similar expansion, differentiation and cytotoxicity profiles as SR1 | CD34 cell expansion (CD34 cells): achieved the highest CD34 cell expansion

Cc1cncc(-c2nc(NCCc3c[nH]c4ccccc34)c3occc3n2)c1 [CRL20, N-(2-(1H-indol-3-yl)ethyl)-2-(5-methylpyridin-3-yl)furo[3,2-d]pyrimidin-4-amine]
cell expansion, rank among all the compounds (CD34+ cells [1]): supported cell expansion the best | expansion, differentiation and cytotoxicity profiles compared to SR1 (CD34+ cells [1]): very similar expansion, differentiation and cytotoxicity profiles as SR1 | CD34 cell expansion (CD34 cells): achieved the highest CD34 cell expansion

Cc1cncc(-c2nc(NCCc3c[nH]c4ccccc34)c3scc(C(C)C)c3n2)c1 [CRL21, N-(2-(1H-indol-3-yl)ethyl)-7-isopropyl-2-(5-methylpyridin-3-yl)thieno[3,2-d]pyrimidin-4-amine]
expansion compared to SR1 (CD34+ cells [1]): slightly less expansion compared to SR1 | CD56+/CD11a+ subpopulation (CD34+ cells [2]): increased CD56+/CD11a+ subpopulation | killing activities compared to cells cultured with SR1 (K562 tumor cells): increased killing activities of the cells

N#Cc1cncc(-c2nc(NCCc3c[nH]c4ccccc34)c3occc3n2)c1 [CRL22, 5-(4-((2-(1H-indol-3-yl)ethyl)amino)furo[3,2-d]pyrimidin-2-yl)nicotinonitrile]
cell expansion, rank among all the compounds (CD34+ cells [1]): supported cell expansion the best | expansion, differentiation and cytotoxicity profiles compared to SR1 (CD34+ cells [1]): very similar expansion, differentiation and cytotoxicity profiles as SR1 | CD34 cell expansion (CD34 cells): achieved the highest CD34 cell expansion

Nc1cccc2c1CN(C1CCC(=O)NC1=O)C2=O (stereo not shown) [lenalidomide, 3-(4′ aminoisoindoline-1′-one)-1-piperidine-2,6-dione]
ORR (VGPR or better) (NDMM patients; 1 year post ASCT): 48% | ORR (VGPR or better) (NDMM patients; 2 year post ASCT): 36% | hazard ratio for TTP versus placebo (NDMM patients; 95% CI 0.46-0.71, p<0.0001): 0.57 | median TTP (NDMM patients; 95% CI 44.2-73.3, not accounting for crossover): 57.3 months

From patent US20220265712A1, “POPULATIONS OF NATURAL KILLER CELLS FOR TREATING CANCERS” (CELULARITY INC., priority 2019, published 2022)
